Data reported in patent publication US20230270797A1, “NOVEL STRAIN OF THE SPECIES LACTICASEIBADLLUS RHAMNOSUS, COMPOSITIONS THEREOF AND USE THEREOF IN THE TREATMENT OF GENITOURINARY INFECTIONS” (URIACH ITALY S.R.L., priority 2020, published 2023).

Experiment: Antioxidant activity, linoleic acid peroxidation (ferric thiocyanate)
Type: biochemical
Conditions: cell free supernatant; linoleic acid 50 mM; negative control (MRS broth) Abs500 nm = 2
Method: Oxidation was measured by determining ferric thiocyanate. Butylated hydroxytoluene (BHT) and α-tocopherol (1 mg/mL) were used as positive controls. MRS broth was used as negative control. […] The analysis was carried out in triplicate.

Cc1c(C)c2c(c(C)c1O)CC[C@@](C)(CCC[C@H](C)CCC[C@H](C)CCCC(C)C)O2 [positive control, α-tocopherol]
Antioxidant activity, absorbance values at 500nm: positive control: Abs500 nm = 0.25)
